Experimental data as given in patent publication US20220308068A1, “BIOMARKER IN OSTEOPOROSIS INTERVENTION THERAPY BY BONE PEPTIDE, SCREENING METHOD AND USE THEREOF” (Institute of Food Science and Technology, Chinese Academy …, priority 2019, published 2022).

Experiments:
[1] = system: ovariectomized osteoporosis rat model; test: serum bone turnover markers by automatic serum biochemical analyzer; assay type: in vivo, SD rats
Experimental: 1, the construction of ovariectomized rats models: SD rats are kept in a clean environment under a controlled room temperature at 25±2° C. and alternates 12/12 light and dark every day, and the SD rats feed freely. After one week adaptive feeding, randomly select 8 female rats, anesthetize them with 1% (v/v) pentobarbital sodium (40 mg/kg BW), and remove a little fat near ovaries. The remaining 40 rats are ovariectomized after being anesthetized with pentobarbital sodium. The recovery situation is observed in a 4-week recovery period, and their weight changes are detected. These are prepared by the applicant in advance. (any research about metabolic fingerprint changes of ovariectomized osteoporotic rats after intervention with bone peptide have not been reported according to the existing literature). 2, animal grouping and samples collection: the 8 female rats with a little fat near ovaries removed are selected as a sham-operated group, the ovariectomized 40 rats are randomly divided into 5 groups with 8 rats in each group, and are named by a negative control group, a positive control group, a low-concentration treatment group, a medium-concentration treatment group and a high-concentration treatment group. The rats are perfused by different solutions of bovine bone peptide (diluted by ultrapure water, and sterilized) with concentration of 100 mg/kg, 200 mg/kg, and 500 mg/kg according to the weights of the rats. The rats in the negative control group are perfused with equal volume of ultrapure sterile water (a perfusing volume is generally 1-2 mL/100 g BW), and the rats in the positive control group are perfused with 50 μg/kg of 17β-estradiol (ES). Observe weight changes of the rats and measure the weights every two weeks. Urine is automatically collected with a metabolic cage for 12 hours every 4 weeks (the urine is collected as much as possible under the premise of ensuring normal signs of the rats). 1 mmol/L NaN3 solution is added into collected urine as a preservative, the collected urine is placed in a centrifuge at 4° C. and centrifuged at a speed of 10000×g for 10 minutes, and the supernatant is collected, distributed and stored in a refrigerator at −80° C. for determining. The rats are fasted for 12 hours at 4th week, 8th week, and 12th week. Fasted rats are anesthetized by intraperitoneal injection of pentobarbital sodium (40 mg/kg BW) with a volume concentration of 1%, and are subjected to blood collection from the abdominal aorta (the blood is collected as much as possible under the premise of ensuring normal signs of the rats). Collected blood is placed at 4° C. for 3 h and is centrifuged (5000 rpm) for 10 minutes. Upper serum is collected (collecting 2 mL of blood, separating into 4 tubes after separating the serum), is divided into 0.5 mL EP tubes, and stored in a refrigerator at −80° C. for later use. The metabolic cage comprises a cage body with a bottom and a metabolite collecting part. The metabolite collecting part is arranged below the cage body and comprises a barrel 1 and a cover 2 mounted on an upper end of a peripheral wall of a first side of the barrel, an upper end of a peripheral wall of a second side of the barrel is provided with a drainage port, and a solid-liquid separating part is arranged in the barrel. The solid-liquid separating part comprises an arc-shaped partition plate 3 with a first end fixed with a peripheral wall of the barrel and multi-stage filter plates 4, which divide an inner space of the barrel into a first accommodating space and a second accommodating space. The multi-stage filter plates are arranged in the second accommodating space along a vertical direction, and the multi-stage filter plates are successively arranged end to end to form a folded-line diversion channel. A depth of a bottom wall of the barrel from the first side to the second side becomes larger. […]

[2] = system: ovariectomized osteoporosis rat model; test: H&E staining of right tibias; assay type: in vivo, SD rats; settings: right tibia, 12 weeks of intervention treatment
Experimental: 1, the construction of ovariectomized rats models: SD rats are kept in a clean environment under a controlled room temperature at 25±2° C. and alternates 12/12 light and dark every day, and the SD rats feed freely. After one week adaptive feeding, randomly select 8 female rats, anesthetize them with 1% (v/v) pentobarbital sodium (40 mg/kg BW), and remove a little fat near ovaries. The remaining 40 rats are ovariectomized after being anesthetized with pentobarbital sodium. The recovery situation is observed in a 4-week recovery period, and their weight changes are detected. These are prepared by the applicant in advance. (any research about metabolic fingerprint changes of ovariectomized osteoporotic rats after intervention with bone peptide have not been reported according to the existing literature). 2, animal grouping and samples collection: the 8 female rats with a little fat near ovaries removed are selected as a sham-operated group, the ovariectomized 40 rats are randomly divided into 5 groups with 8 rats in each group, and are named by a negative control group, a positive control group, a low-concentration treatment group, a medium-concentration treatment group and a high-concentration treatment group. The rats are perfused by different solutions of bovine bone peptide (diluted by ultrapure water, and sterilized) with concentration of 100 mg/kg, 200 mg/kg, and 500 mg/kg according to the weights of the rats. The rats in the negative control group are perfused with equal volume of ultrapure sterile water (a perfusing volume is generally 1-2 mL/100 g BW), and the rats in the positive control group are perfused with 50 μg/kg of 17β-estradiol (ES). Observe weight changes of the rats and measure the weights every two weeks. After perfusing experiment, the rats are sacrificed in accordance with the animal welfare operating procedures, femurs and tibias on both sides are taken, and soft tissues such as muscle and fascia attached to bone tissues are removed. The right tibias are subjected to paraffin-embedded H&E staining treatment after fixing in a phosphate-formalin buffer for 24 hours for morphometric analysis of the tibias of the rats. Left femurs and right femurs is soaked with normal saline, washed repeatedly for 3 times, wrapped with medical gauzes (pre-soaked with normal saline) and tinfoil, and then stored in a −20° C. refrigerator for trabecular bone microstructure (micro-CT scanning) and mechanical strength tests of bone biomechanical indexes (three-point bending test). […]

[3] = treatment groups and ES group vs Model group
[4] = vs Model group, P<0.05, YBP 100/200/500 mg/kg, ES 50 μg/kg perfused

## C[C@]12CC[C@@H]3c4ccc(O)cc4CC[C@H]3[C@@H]1CC[C@@H]2O [ES, 17β-estradiol]
[1]; [3]
  content of DPD: on a decline trend
  content of PINP: on a decline trend
  content of S-CTX: on a decline trend
  content of TRAP: on a decline trend
[1]; [4]
  content of B-ALP (bone alkaline phosphatase): significantly increased
  content of BGP (bone gamma-carboxyglutamic acid containing proteins): significantly increased
[2]
  trabecular bone area: significantly increased
  trabecular bone connection: tighter
  trabecular bone spacing: smaller
  trabecular bone width: wider
